The results in this text go back to article PMC8955853, “New Sorbicillinoids with Tea Pathogenic Fungus Inhibitory Effect from Marine-Derived Fungus Hypocrea jecorina H8” (Marine Drugs, 2022).

In brackets after ≈: the same amount, converted by molar mass. Entries after “also recorded” stand apart in the source; their conditions may differ. Like-named read-outs stand apart in the source and are kept apart here.

The test system of one data set is Pestalotiopsis theae. Kind of data set: Antifungal activity assay, growth inhibition of tea pathogenic fungus. It is filed as cell-based. Particulars: for IC50: Pseudopestalotiopsis theae, read-out: ED50, antifungal activity against Pestalotiopsis theae; for fold stronger anti-tea pathogenic fungus effect than hexaconazole: compared to positive control hexaconazole (24.25 ± 1.57 µg/mL). Here is the method: Compounds 1 to 11 were evaluated for antifungal activities by a paper disc inhibition assay.
Initial evaluations of the antifungal activity of the purified compounds were conducted against tea pathogenic fungus P. theae in six-well microplates as described by Xia Yan with certain modifications. The final concentrations of each compound in the wells were 80, 40, 20, 10, 5, and 2.5 µg/mL (two-fold dilutions). DMSO and hexaconazole were used as a blank control and positive control, respectively. The ED50 (μg/mL) values were calculated statistically using Probit analyses.

A further data set relates to zebrafish embryos. Kind of data set: Zebrafish embryotoxicity and developmental toxicity assay. Particulars: for effects on mortality rate and malformation of zebrafish: 0.625 μM for 24 h and 10 μM for 72 h (Figure 4c); for change of effect on zebrafish embryo mortality when treatment prolonged to 72 h: 72 h versus 24 h (Figure 4b). The format is in vivo. As to the method:
Figure 4 Embryotoxicity and developmental toxicity assay; 15 zebrafish embryos per condition were exposed to compounds at the concentrations of 10, 5, 2.5, 1.25, and 0.625 μM, and 0.1% DMSO was used as blank control. (a) The mortality rate of 24 embryo treated with compounds; (b) The mortality rate of 72 embryo treated with compounds; (c) The impact on the malformation of zebrafish treated with compounds) The statistics of 24 and 72 h mortality rate; © Morphology of 24 h embryo or 72 h zebrafish larvae treated with compounds or control.
Wild-type (AB strain) zebra fish (Danio rerio) were used in this test. Compounds 5, 6, 8, 9, and 10 were dissolved in DMSO (10 mM) and stored at −20 °C. Toxicity evaluations were analyzed regarding the anti-proliferative effects on embryos according to the literature. In brief, 15 zebrafish embryos per condition were exposed to compounds at the concentrations of 10, 5, 2.5, 1.25, and 0.625 μM, and 0.1% DMSO was used as the vehicle control. A Leica stereomicroscope was used to observe the embryos every 24 h.

[1] abbreviates: tested at 80, 40, 20, 10, 5 and 2.5 µg/mL, Probit analysis.

As for `CCC12C(=O)OC(C)(C(=O)C(C)=C1CC(C)=O)C2CC(=O)C=CC=CCO` (stereo not drawn) [Compound 1, trichodermolide C], in the data set on Pestalotiopsis theae (setting [1]), the IC50 is > 100 µg/mL.
On the same count and under the same terms, the same measure for `CC=CC=CC(O)CC1C2(C)OC(=O)C1(CC)C(CC(C)O)=C(C)C2=O` (stereo not drawn) [Compound 2, trichodermolide D]: > 100 µg/mL.
In the case of `CC=CC=CC(O)=C1C(=O)C2(C)C3C(=C(O)CC(O)C=CC)C(=O)C4(C)C1C1(C)OC4(O)C3(C)OC12O` (stereo not drawn) [Compound 3, 7,7′,9′-hydroxy-trichodimerol], the IC50 in the data set on Pestalotiopsis theae is > 100 µg/mL.
`Cc1cc(C(=O)CC(O)C(O)C(C)O)c(O)c(C)c1O` (stereo not drawn) [Compound 4, 1-(2,4-dihydroxy-3,5-dimethylphenyl)-3,4,5-trihydroxyhexan-1-one]: the IC50 in the data set with Pestalotiopsis theae (setting [1]) was > 100 µg/mL.
As to `CC=CC=CC(O)=C1CC(C)(O)C2(O)OC3(C)C(O)=C(C)C(=O)C(=C(O)C=CC=CC)C3C2(C)C1=O` (stereo not drawn) [Compound 5, isobisvertinol A], in the data set on zebrafish embryos, the “effects on mortality rate and malformation of zebrafish” value is on record as “greater effects than other compounds”; the “change of effect on zebrafish embryo mortality when treatment prolonged to 72 h” value (“change of effect” for short) is “did not change greatly”. In the data set with Pestalotiopsis theae (setting [1]), the IC50 was found to be 9.13 ± 1.25 µg/mL (≈ 18.3 µM). Further, in the data set with Pestalotiopsis theae, the “fold stronger anti-tea pathogenic fungus effect than hexaconazole” value is listed as ~3 fold.
On to `C/C=C/CCC(=O)c1cc(C)c(O)c(C)c1O` [Compound 6, 2′,3′-dihydrosorbicillin], for which the “change of effect” value in the data set with zebrafish embryos is on record as “did not change greatly”. Further, the IC50 with Pestalotiopsis theae (setting [1]) turned out to be 2.04 ± 1.24 µg/mL (≈ 8.71 µM).
For `C/C=C/C=C/C(=O)c1cc(C)c(O)cc1O` [Compound 7, 6-demethylsorbicillin], the IC50 with Pestalotiopsis theae (setting [1]) is > 100 µg/mL.
Consider `C/C=C/C=C/C(=O)c1cc(C)c(O)c(C)c1O` [Compound 8, sorbicillin], for which the zebrafish embryos killed result with zebrafish embryos (0.625 μM for 24 h) and with zebrafish embryos (10 μM for 72 h) was “more than 50%” in each case. For the same compound, the “effects on mortality rate and malformation of zebrafish” value in the data set on zebrafish embryos is recorded as “greater effects than other compounds”. Besides, the “mortality rate of zebrafish embryo” value in the data set on zebrafish embryos (0.625 μM, 72 h (Figure 4b)) is ~60%. Besides, the IC50 with Pestalotiopsis theae (setting [1]) was 18.2 ± 1.29 µg/mL (≈ 78.4 µM).
Take `Cc1cc(C(=O)/C=C/C=C/CO)c(O)c(C)c1O` [Compound 9, (2E,4E)-1-(2,4-dihydroxy-3,5-dimethylphenyl)-6-hydroxyhexa-2,4-dien-1-one]: in the data set on zebrafish embryos, the “change of effect” value is given as “did not change greatly”. In the data set with Pestalotiopsis theae (setting [1]), the IC50 is 1.83 ± 1.37 µg/mL (≈ 7.37 µM). In the data set with Pestalotiopsis theae, the “fold stronger anti-tea pathogenic fungus effect than hexaconazole” value came to 13 fold.
Turning to `C/C=C/C=C/C(O)=C1\C[C@](C)(O)[C@]2(O)O[C@]3(C)C(O)=C(C)C(=O)/C(=C(O)/C=C/C=C/C)[C@@H]3[C@]2(C)C1=O` [Compound 11, bisvertinol], in the data set with Pestalotiopsis theae (setting [1]), the IC50 was > 100 µg/mL.
Still for that read-out and setting: the same measure for `CCCCC(O)(Cn1cncn1)c1ccc(Cl)cc1Cl` (stereo not drawn) [hexaconazole, reference compound]: 24.2 ± 1.57 µg/mL (≈ 77.2 µM).
Consider trichodimerol [Compound 10], for which, in the data set on zebrafish embryos (10, 5, 2.5, 1.25 and 0.625 μM, observed every 24 h), the “toxicity to zebrafish eggs, embryos or larvae (overall, in words)” value is recorded as “low toxicity; also recorded: much lower toxicity”. The “change of effect” value in the data set on zebrafish embryos is “did not change greatly”. Moreover, the “ED50, antifungal activity against Pestalotiopsis theae” value with Pestalotiopsis theae (setting [1]) is on record as 4.68 ± 1.44 µg/mL.
